Laboratory results taken from patent publication US7008924B1, “VGF fusion polypeptides” (Amgen, Inc., priority 1999, dated 2006).

System: VGF knockout mice
Experiment: Biological activity of VGF polypeptide in knockout mice (body weight)
Type: in vivo
Details: VGF gene knockout mice; intraperitoneal injection of 2 mg twice daily for five days; three of the four treated mice
Experimental: The biological activity of VGF polypeptides in knockout mice was analyzed using VGF polypeptides synthesized by the Amgen Boulder Peptide Technology group using standard peptide synthesis protocols. Following peptide synthesis, VGF polypeptides from different batches were pooled and lyophilized. The peptide content for each VGF polypeptide was determined by hydrolysis with HCl.
VGF gene knockout mice were obtained from Steve Salton of Mt. Sinai School of Medicine, New York, N.Y. Prior to administration of VGF polypeptide, knockout mice were housed under LD 12:12 conditions (i.e., 12 hours of light and 12 hours of dark). Twenty-four hours before VGF polypeptide injection, knockout mice were individually caged and moved to a temporary housing room where the mice were kept for the remainder of the experiment under LD 12:12 conditions.
VGF polypeptide was administered to knockout mice twice daily (at 9:00 a.m. and 6:00 p.m.) by intraperitoneal injection of 2 mg of VGF-1a (SEQ ID NO: 2; Table I). Prior to injection, VGF-1a polypeptide was diluted to 16% in aCSF Solution Buffer (126.6 mM NaCl, 2.6 mM KCl, 2.0 mM MgCl2 and 1.4 mM CaCl2, 10 mM NaPO4, pH 7.4). Knockout mice were administered VGF-1a polypeptide for five days and the body weight of each mouse was measured daily. The body weight of treated mice was measured daily for three days following the withdrawal of VGF-1a polypeptide.

VGF-1a: VGF polypeptide, amino acid sequence AQEEADAEE (listed as Rattus norvegicus)
gain in body weight: 10–15%
